Results from patent US20260374766A1, “METHODS FOR TREATING CANCER” (Antares Therapeutics, Inc., priority 2022, published 2026).
Like-named read-outs stand apart in the source and are kept apart here.

How the values were obtained:
[1] = system: H1299 p53 Y220C; assay: Cell Proliferation Assay (CellTiter-Glo, CTG), H1299 p53 Y220C (NClH1299-inducible p53 Y220C); type: cell-based; details: Homo sapiens, NCI-H1299, 120 h, 5 days
Outline: (§1)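 NClH1299 lines stably transduced with Tet-inducible p53 Y220C or R273H, plus NUGC3, were treated with compound for 5 days at 250-500 cells/well. IC50 derived from CellTiter-Glo luminescent signal after 10 min room-temperature incubation.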

[2] = molecular target: p53 Y220C (Homo sapiens, UniProt P04637, Y220C); assay: Luciferase Reporter Assay (Luc), p53 response element, NClH1299 cells with inducible p53 Y220C; type: cell-based; details: 6 hour; for AC50: read-out: Luc P53 Y220C AC50
Outline: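 24 h dox pre-induction (0.5 ug/mL), then 6 h compound; One-Glo luminescent read.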

[3] = system: NUGC3 p53 Y220C; assay: Cell Proliferation Assay (CellTiter-Glo, CTG), NUGC3 p53 Y220C; type: cell-based; details: Homo sapiens, NUGC-3, 120 h, 5 days
Outline: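 Tet-One inducible p53 Y220C or R273H constructs were stably introduced into NCI-H1299 by lentiviral transduction; NUGC3 was used as is. Cells (250-500 per well) were exposed to compound for 5 days, then CellTiter-Glo was added for 10 min at room temperature and IC50 was calculated from luminescence.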

[4] = system: H1299 p53 R273H; assay: Cell Proliferation Assay (CellTiter-Glo, CTG), H1299 p53 R273H (NClH1299-inducible p53 R273H); type: cell-based; details: Homo sapiens, NCI-H1299, 120 h, 5 days
Outline: as §1

[5] = molecular target: T1, p53 Y220C mutant protein (amino acid residues 94-293) (Homo sapiens, UniProt P04637, Y220C); assay: Surface Plasmon Resonance (SPR) assay, Kd_kinetic; type: binding; details: SPR, p53 Y220C, read-out: SPR P53 Y220C KD kinetic
T1 construct: p53 Y220C mutant protein (amino acid residues 94-293)
Outline: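 Biacore 8K SPR; 16 or 20 °C; Tris 50 mM pH 7.5, NaCl 100 mM, DTT 1 mM, Brij35 0.01%, Tween-20 0.05%, DMSO 1%. Kd_kinetic by 1:1 fit.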

[6] = NClH1299-inducible p53 Y220C cells, CellTiter-Glo
[7] = AC50, luciferase reporter, NClH1299 inducible p53 Y220C
[8] = Emax, luciferase reporter, NClH1299 inducible p53 Y220C
[9] = NClH1299-inducible p53 R273H cells, CellTiter-Glo

T1 sequence (P04637 94-293, stated change not applied): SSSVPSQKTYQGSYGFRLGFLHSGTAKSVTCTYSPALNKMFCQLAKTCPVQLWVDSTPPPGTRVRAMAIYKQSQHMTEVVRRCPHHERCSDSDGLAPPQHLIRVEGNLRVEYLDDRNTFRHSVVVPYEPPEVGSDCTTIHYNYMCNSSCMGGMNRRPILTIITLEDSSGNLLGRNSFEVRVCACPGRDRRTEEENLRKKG

Row | SMILES | IC50 ([1]; CellTiter-Glo, H1299 p53 Y220C) | Emax ([2]; luciferase reporter, NClH1299 inducible p53 Y220C, 10 uM tool compound as positive control) | AC50 ([2]; luciferase reporter, NClH1299 inducible p53 Y220C) | IC50 ([3]; CellTiter-Glo, NUGC3 p53 Y220C) | IC50 ([4]; CellTiter-Glo, H1299 p53 R273H) | Kd ([5]; kinetic KD) | IC50 [1, 6] | AC50 [2, 7] | Emax [2, 8] | IC50 ([3]; NUGC3 cells, CellTiter-Glo) | IC50 [4, 9] | Kd [5] | IC50 ([1]; NClH1299-inducible p53 Y220C cells) | AC50 ([2]; AC50, NClH1299 cells with inducible p53 Y220C) | Emax ([2]; Emax, NClH1299 cells with inducible p53 Y220C, 10 uM tool compound as positive control) | IC50 ([3]; NUGC3 cells) | IC50 ([4]; NClH1299-inducible p53 R273H cells)
1 | CNC(=O)c1ccc(NCC#Cc2nc3c(N[C@@H]4C[C@H]5COC[C@@H]([C@@H]4F)N5C)cccn3c2SC(F)(F)F)c(OC)c1 [Example 137] | > 3000 nM | < 70% | > 3000 nM | > 3000 nM | ≥ 10000 nM | 10 to 100 nM | – | – | – | – | – | – | – | – | – | – | –
2 | CNC(=O)c1cc(NCC#Cc2nc3c(N[C@@H]4CCN(C)C[C@@H]4F)cccn3c2SC(F)(F)F)c(OC)nn1 [Example 259] | – | – | – | – | – | – | < 750 nM | < 750 nM | > 90% | < 750 nM | ≥ 10000 nM | < 10 nM | – | – | – | – | –
3 | CN1CC[C@@H](Nc2cccn3c(SC(F)(F)F)c(C#CCNc4ccc(P(C)(C)=O)c5ccoc45)cc23)[C@@H](F)C1 [Example 452] | – | – | – | – | – | – | < 750 nM | < 750 nM | > 90% | < 750 nM | < 5000 nM | < 10 nM | – | – | – | – | –
4 | CNC(=O)c1cnc(OC)c(NCC#Cc2nc3c(N[C@@H]4CNC[C@@H]4F)cccn3c2SC(F)(F)F)c1 [Example 305] | – | – | – | – | – | – | < 750 nM | < 750 nM | 80 to 90% | < 750 nM | ≥ 10000 nM | < 10 nM | – | – | – | – | –
5 | O=C(NCC1COC1)c1ccc(NCC#Cc2cc3c(N[C@@H]4CCNC[C@@H]4F)cccn3c2SC(F)(F)F)cc1 [Example 364] | – | – | – | – | – | – | < 750 nM | < 750 nM | 70 to 80% | < 750 nM | < 5000 nM | < 10 nM | – | – | – | – | –
6 | CNC(=O)c1ccc(NCC#Cc2cc3c(N[C@@H]4CN(C)C[C@@H]4F)nccn3c2SC(F)(F)F)c(OC)c1 [Example 325] | – | – | – | – | – | – | < 750 nM | < 750 nM | > 90% | < 750 nM | ≥ 10000 nM | < 10 nM | – | – | – | – | –
7 | COc1ccc(C(=O)NCC(C)(C)O)cc1NCC#Cc1cc2c(N[C@@H]3CCN(C)C[C@@H]3F)cccn2c1SC(F)(F)F [Example 424] | – | – | – | – | – | – | < 750 nM | < 750 nM | > 90% | < 750 nM | ≥ 10000 nM | < 10 nM | – | – | – | – | –
8 | CNC(=O)c1ccc(OC)c(NCC#Cc2nc3c(N[C@@H]4CNC[C@@H]4F)cccn3c2CC(F)(F)F)n1 [Example 263] | – | – | – | – | – | – | 1500 to 3000 nM | > 3000 nM | 70 to 80% | 750 to 1500 nM | ≥ 10000 nM | < 10 nM | – | – | – | – | –
9 | CNC(=O)c1ccc(NCC#Cc2nc3c(N[C@@H]4CCN(C)C[C@@H]4F)cccn3c2SC(F)(F)F)c(Cl)c1 [Example 310] | – | – | – | – | – | – | < 750 nM | < 750 nM | > 90% | < 750 nM | ≥ 10000 nM | < 10 nM | – | – | – | – | –
10 | COc1cc(C(N)=O)ccc1NCC#Cc1cc2c(N[C@@H]3CCN(C)C[C@@H]3F)nccn2c1SC(F)(F)F [Example 299] | – | – | – | – | – | – | < 750 nM | < 750 nM | > 90% | < 750 nM | ≥ 10000 nM | < 10 nM | – | – | – | – | –
11 | CN1CC[C@@H](Nc2cccn3c(SC(F)(F)F)c(C#CCNc4ccc(C(=O)NCC(C)(C)O)cc4)cc23)[C@@H](F)C1 [Example 457] | – | – | – | – | – | – | – | – | – | – | – | < 10 nM | < 750 nM | < 750 nM | > 90% | < 750 nM | 8000 to 10000 nM
12 | CN1CC[C@@H](Nc2cccn3c(SC(F)(F)F)c(C#CCNc4ccc(P(C)(C)=O)c5ocnc45)cc23)[C@@H](F)C1 [Example 437, 7-(dimethylphosphoryl)-N-[3-(8-{[(3S,4R)-3-fluoro-1-methylpiperidin-4-yl]amino}-3-[(trifluoromethyl)sulfanyl]indolizin-2-yl)prop-2-yn-1-yl]-1,3-benzoxazol-4-amine] | – | – | – | – | – | – | < 750 nM | < 750 nM | > 90% | < 750 nM | ≥ 10000 nM | < 10 nM | – | – | – | – | –
